Experimental data from patent US6887878B2, “KMST isoeugenol derivatives and pharmaceutical activity” (Ing-Jun Chen, priority 2003, dated 2005).

Tests used:
[1] = molecular target: T1, 5-HT2A receptor (Rattus norvegicus, UniProt P14842); test: [3H]ketanserin receptor binding in rat cortex; parameters: from tissue; host or cells: Wistar rat cortex membranes; species or system Wistar rat
Experimental: (§1) The homogenate was pressure filtered through muslin. Filtrate was centrifuged at 1000 g for 10 min. […] Protein content was determined by Bradford's method.

[2] = system: pentobarbital-anesthetized rats; test: intravenous injection in pentobarbital-anesthetized rats, BP and HR; format: in vivo, Wistar rat; conditions: intravenous administration
Experimental: (§2) In brief, Wistar rats weighing 250-300 g were anesthetized with pentobarbital sodium (50 mg kg^−1, i.p.). Following tracheal cannulation, systemic arterial BP and HR were recorded from the femoral artery by a pressure transducer (model P10EZ; Spectramed, Oxnard, Calif., U.S.A.) connected to a recorder (GOULD, Valley View, Ohio, Model P50). Body temperature was maintained at 37° C. by an electric heating pad. A femoral vein was cannulated for intravenous injection of drugs and LPS (10 mg kg^−1).

[3] = system: serotonin-induced human platelet aggregation; test: serotonin-induced human platelet aggregation; format: cell-based; conditions: serotonin 5 μM, PRP; read-out: IC50 serotonin-induced human platelet aggregation
Experimental: Venous blood from human volunteer donors was collected in 10 ml Monovette containing 1 ml citrate solution (0.106M trisodium citrate; Sarstedt, Nümbrecht, Germany) and centrifuged (400 g, 10 min, 20° C.). […] After centrifugation (10 min, 2000 g, 20° C.), the platelet pellet was resuspended in wishing buffer (113 mM NaCl, 4 mM Na2HPO4, 24 mM NaH2PO4, 4 mM KCl, 0.2 mM EGTA(Ethylene glycol-bis-(2-aminoethyl ether) N,N,N′-tetraacetic acid), 0.1% (wt/vol) glucose, pH 6.0) and recentrifuged (10 min, 2000 g, 20° C.). The washed platelets were resuspended in incubation buffer (134 mM NaCl, 12 mM NaHCO3, 2.9 mM KCl, 0.34 mM NaH2PO4, 5 mM HEPES (N-(2-hydroxyethyl) piperazine-N′-(2-ethanesulfonic acid)), 5 mM glucose, pH7.4), cells were counted in a Sysmex hematology analyzer (Sysmex, CDA-500, Japan) and adjusted to a final concentration of 2×10^8 platelets/ml.
The aggregation of the platelets in platelet-rich plasma (PRP) was measured as a change in light absorbance by a Payton dual-channel aggregometer (NBS, Hema tracer, Japan). PRP (240 μL) was stirred (700 rpm) at 37° C. for 1 min, and 5 μL epinephrine (final concentration 5 μM), serotonin (final concentration 5 μM) was added. After which the rate of primary aggregation (1/min) and maximum aggregation (%) at 5 min were recorded. To study the effects of compounds on epinephrine or serotonin-induced aggregation, PRP was incubated with 5 μL of compounds at various concentrations for 1 min before epinephrine or serotonin was added. IC50 values given were calculated from the secondary aggregation data.

[4] = molecular target: T2, 5-HT1A (Rattus norvegicus, UniProt P19327); test: [3H]WAY100635 receptor binding; conditions: read-out: Ki 5-HT1A; [3H]WAY100635
T2 sequence (P19327 1-422): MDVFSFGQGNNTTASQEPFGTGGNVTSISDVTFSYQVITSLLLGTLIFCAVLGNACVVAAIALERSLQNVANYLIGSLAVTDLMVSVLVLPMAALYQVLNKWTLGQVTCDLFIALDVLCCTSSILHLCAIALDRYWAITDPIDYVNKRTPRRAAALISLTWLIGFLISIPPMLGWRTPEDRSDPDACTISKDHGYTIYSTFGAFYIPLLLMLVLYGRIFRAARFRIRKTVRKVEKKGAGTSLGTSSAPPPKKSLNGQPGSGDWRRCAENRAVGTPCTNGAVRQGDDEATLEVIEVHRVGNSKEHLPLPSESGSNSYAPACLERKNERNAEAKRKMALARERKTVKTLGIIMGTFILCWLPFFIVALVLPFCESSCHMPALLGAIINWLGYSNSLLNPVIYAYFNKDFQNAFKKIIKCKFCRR

[5] = molecular target: T1, 5-HT2A receptor; test: 5-HT-induced contraction in isolated rat thoracic aorta (pA2); parameters: Rat thoracic aorta was removed, cleaned of adhering fat and connective tissue; from tissue; host or cells: Wistar rat thoracic aorta rings; species or system Wistar rat; conditions: Schild plot, mean ± SEM of eight, listed as KMST
Experimental: (§3) Clonidine, noradrenaline and serotonin (10^−8˜10^−4 M) were added to the bath to induce contractions after pretreatment with KMST for 15 min.

[6] = molecular target: M2; test: M2 receptor binding; parameters: species or system guinea pig
[7] = molecular target: α1 receptors; test: [3H]prazosin receptor binding in rat cortex; parameters: species or system Wistar rat
Experimental: as §1

[8] = system: rats; test: LPS-induced mortality; conditions: rat, in vivo
[9] = system: anesthetized rats; test: LPS-induced hypotension; format: in vivo, Wistar rat; conditions: pretreatment, intravenous LPS
Experimental: as §2

[10] = molecular target: T3, 5-HT re-uptake (Rattus norvegicus, UniProt P31652); test: 5-HT re-uptake in cerebral cortex synaptosomes; format: biochemical, Wistar rat; conditions: read-out: IC50 of 5-HT uptake inhibition
T3 construct: the cerebral cortex or striatum was dissected and crude synaptosomes were prepared; from tissue; host or cells: crude synaptosomes of Wistar rat cerebral cortex
Experimental: Wistar rats weighting 150-200 g were decapitated, the cerebral cortex or striatum was dissected and crude synaptosomes were prepared. […] Uptake was initiated by the addition of 50 μl of [^3H] […] Saline was added to the incubation mixture, which was then filtered through a Whatman GF/B glass filter under reduced pressure. To determine nonspecific uptake, incubation was performed at 0° C.

[11] = system: lipid peroxidation in rat brain homogenate; test: lipid peroxidation initiated by Fe2+-ascorbic acid in rat brain homogenates (TBARS); format: biochemical
Experimental: Rat brain homogenate was made in 0.9% saline containing 10 mg tissue/ml. The rates of membrane lipid peroxidation were measured by the formation of thiobarbituric acid (TBA)-reactive substance (TBARS). Rat brain homogenates (1 ml) were incubated at 37° C. for 5 min with 10 μl of test compound or vehicle. […] After 30 min of incubation, the reaction was stopped by adding 0.1 ml of 0.2% BHT. TBA reagent was then added and the mixture was heated for 30 min in a boiling water bath. […] The amount of TBARS was quantified using the linear regression obtained from malondialdehyde (MDA) standards.

[12] = molecular target: T4, β1 receptors (Rattus norvegicus, UniProt P18090); test: [3H]CGP-12177 receptor binding in rat ventricle; parameters: species or system Wistar rat; conditions: [3H]CGP-12177, rat ventricle
T4 construct: from tissue; host or cells: Wistar rat heart (ventricle) membranes
Experimental: as §1

[13] = system: α2-adrenergic receptor; test: clonidine-induced contraction in isolated rat thoracic aorta (pA2); parameters: species or system Wistar rat; conditions: Schild plot, mean ± SEM of eight, listed as KMST
Experimental: as §3

T1 sequence (P14842 whole entry): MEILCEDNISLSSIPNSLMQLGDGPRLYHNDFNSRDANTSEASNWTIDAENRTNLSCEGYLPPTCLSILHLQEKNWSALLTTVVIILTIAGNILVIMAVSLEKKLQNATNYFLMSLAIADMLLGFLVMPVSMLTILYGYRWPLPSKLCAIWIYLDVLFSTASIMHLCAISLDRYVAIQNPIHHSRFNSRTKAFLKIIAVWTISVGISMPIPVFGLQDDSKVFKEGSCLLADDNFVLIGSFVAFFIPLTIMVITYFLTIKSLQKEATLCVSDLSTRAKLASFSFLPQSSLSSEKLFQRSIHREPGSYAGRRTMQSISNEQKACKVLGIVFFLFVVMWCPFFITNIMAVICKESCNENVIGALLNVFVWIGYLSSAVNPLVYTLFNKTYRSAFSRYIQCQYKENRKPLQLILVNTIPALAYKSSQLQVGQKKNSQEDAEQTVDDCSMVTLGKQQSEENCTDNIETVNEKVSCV
T3 sequence (P31652 whole entry): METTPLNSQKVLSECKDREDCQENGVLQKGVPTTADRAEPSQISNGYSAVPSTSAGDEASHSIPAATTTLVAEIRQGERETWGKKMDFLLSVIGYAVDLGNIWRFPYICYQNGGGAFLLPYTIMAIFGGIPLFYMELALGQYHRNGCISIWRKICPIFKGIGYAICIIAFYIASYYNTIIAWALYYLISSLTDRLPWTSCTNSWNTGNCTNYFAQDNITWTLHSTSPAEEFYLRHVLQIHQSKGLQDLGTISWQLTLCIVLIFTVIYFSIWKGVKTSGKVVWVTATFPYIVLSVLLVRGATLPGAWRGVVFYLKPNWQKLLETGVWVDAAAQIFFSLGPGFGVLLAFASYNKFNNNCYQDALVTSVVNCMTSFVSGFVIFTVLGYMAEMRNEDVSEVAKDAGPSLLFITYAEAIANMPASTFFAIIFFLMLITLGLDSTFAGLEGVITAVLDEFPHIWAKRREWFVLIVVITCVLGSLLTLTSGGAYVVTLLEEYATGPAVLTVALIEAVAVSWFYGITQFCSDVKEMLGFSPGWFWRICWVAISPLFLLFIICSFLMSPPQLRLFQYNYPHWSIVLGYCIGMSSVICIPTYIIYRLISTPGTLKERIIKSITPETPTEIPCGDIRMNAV
T4 sequence (P18090 whole entry): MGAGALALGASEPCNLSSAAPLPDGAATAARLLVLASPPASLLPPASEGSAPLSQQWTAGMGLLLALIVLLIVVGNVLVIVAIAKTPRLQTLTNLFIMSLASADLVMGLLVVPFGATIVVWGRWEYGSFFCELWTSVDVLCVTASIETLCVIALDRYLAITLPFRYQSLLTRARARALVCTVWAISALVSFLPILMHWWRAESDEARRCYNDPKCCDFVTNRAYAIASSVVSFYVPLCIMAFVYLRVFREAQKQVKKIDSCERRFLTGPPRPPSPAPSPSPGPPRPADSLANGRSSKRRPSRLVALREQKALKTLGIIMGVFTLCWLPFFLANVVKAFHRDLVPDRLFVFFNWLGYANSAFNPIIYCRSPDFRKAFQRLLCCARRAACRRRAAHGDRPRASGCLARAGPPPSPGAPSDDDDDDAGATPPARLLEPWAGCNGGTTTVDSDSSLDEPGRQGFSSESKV

With `CC=Cc1ccc(OCC(O)CN2CCN(c3cccc(Cl)c3)CC2)c(OC)c1` (stereo not drawn) [Compound 1] the Ki [1] was 33.3 nM, the “mean BP and HR” value [2] was “dose-dependent decrease” and the “phenylephrine- and isoprenaline-induced changes in BP and HR” value [2] was “inhibited”. The IC50 [3] was 3.63 nM, the Ki [4] was > 10 µM and the “5-HT2A pA2 value” [5] was 8.68±0.12. For the same compound, the Ki [6] was > 10 µM, the Ki [7] was 142 nM and the LPS-induced death [8] was “did not prevent”. The “survival time after LPS” value [8] was “did prolong survival time”, the “aortic hyporeactivity and second prolonged hypotensive reaction induced by LPS” value [9] was “inhibited” and the IC50 [10] was 34.3 µM. The “potency of KMST relative to ascorbic acid, lipid peroxidation” value ([11]; rat brain homogenate) was ~3 times, the “potency of KMST relative to trazodone, lipid peroxidation” value ([11]; rat brain homogenate) was ~30 times and the “potency of KMST relative to yohimbine, lipid peroxidation” value ([11]; rat brain homogenate) was “approximately 5 times”. For the same compound, the IC50 ([11]; rat brain homogenates, listed as KMST, read-out: IC50 inhibiting lipid peroxidation initiated by Fe2+-ascorbic acid) was 2680 nM, the Ki [12] was 72.8 nM and the “α2 pA2 value” [13] was 7.40±0.38.
